Assay results taken from patent US20260109707A1, “HETEROBIFUNCTIONAL COMPOUNDS AND METHODS OF TREATING DISEASE” (Halda Therapeutics OpCo. Inc., priority 2022, published 2026).
Like-named read-outs stand apart in the source and are kept apart here.

Tests used:
VCaP cells = assay: Cellular growth inhibition assay for VCaP cells (CellTiter-Glo, 72 hours); type: cell-based, human
How it was run: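 Luminescent viability signal after 72 h of compound exposure gave GI50 values by four-parameter nonlinear regression. Compounds were added in 0.5% DMSO to cells plated 24 h earlier at 5000/well in DMEM containing 10% FBS.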

[1] = tested on: T-Rex 293 cell line SC3 cells lacking increased expression of androgen receptor protein; assay: Cellular growth inhibition assay, T-Rex 293 SC3 cells without doxycycline (CellTiter-Glo, 72 hours); type: cell-based; conditions: T-Rex 293 cell line SC3 cells not exposed to doxycycline (lacking increased androgen receptor expression)
How it was run: (§1)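 Growth inhibition is measured in an inducible AR-expressing T-Rex 293 clone, SC3, cultured with or without 10 ng/mL doxycycline in hormone-depleted medium. Test compounds are applied for 72 hours. GI50 values derive from CellTiter-Glo 2.0 signal fitted by four-parameter regression.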

T47D cells = assay: Cellular growth inhibition assay for T47D cells (CellTiter-Glo, 72 hours); type: cell-based, human; conditions: 72 hours treatment
How it was run: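 Cells are plated at 3000/well and allowed 24 h before treatment. Test compound in medium containing 0.5% DMSO is then added, with DMSO-only wells as negative control, and plates are incubated 72 h at 37 °C. ATP luminescence (CellTiter-Glo 2.0) is then fitted to four parameters to derive GI50.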

[2] = tested on: T-Rex 293 cell line SC3 cells having increased expression of androgen receptor protein due to exposure to doxycycline; assay: Cellular growth inhibition assay, T-Rex 293 SC3 cells with doxycycline (CellTiter-Glo, 72 hours); type: cell-based; conditions: T-Rex 293 SC3 cells with increased androgen receptor expression due to doxycycline (10 ng/mL)
How it was run: as §1

| SMILES | GI50 (VCaP cells; Homo sapiens, VCaP, 72 h) | GI50 (T47D cells; Homo sapiens, T47D, 72 h) | GI50 (VCaP cells) | GI50 (T47D cells) | GI50 ([1]; 72 h) | GI50 ([2]; 72 h) | GI50 [1] | GI50 [2] |
| --- | --- | --- | --- | --- | --- | --- | --- | --- |
| Cc1sc2c(c1C)C(c1ccc([C@H]3C[C@H]([C@@H]4CCCN(c5ccc(C(=O)N[C@H]6CC[C@H](Oc7ccc(C#N)c(Cl)c7)CC6)nn5)C4)C3)cc1)=N[C@@H](Cc1ncco1)c1nnc(C)n1-2 [I-377] | < 500 nM | < 500 nM | – | – | < 500 nM | < 500 nM | – | – |
| Cc1sc2c(c1C)C(c1ccc(C3CC([C@@H]4CCCN(c5ccc(C(=O)N[C@H]6CC[C@H](Oc7ccc(C#N)c(Cl)c7)CC6)nn5)C4)C3)cc1)=N[C@@H](Cc1ncco1)c1nnc(C)n1-2 (stereo partly drawn) [I-378] | < 500 nM | 500 to 1500 nM | – | – | > 3000 nM | < 500 nM | – | – |
| Cc1sc2c(c1C)C(c1ccc([C@H]3C[C@H](C4CC5(CCN(c6ccc(C(=O)N[C@H]7CC[C@H](Oc8ccc(C#N)c(Cl)c8)CC7)nn6)CC5)C4)C3)cc1)=N[C@@H](Cc1ncco1)c1nnc(C)n1-2 [I-381] | > 3000 nM | > 3000 nM | – | – | > 3000 nM | > 3000 nM | – | – |
| Cc1sc2c(c1C)C(c1ccc([C@H]3C[C@@H](C4CC5(CCN(c6ccc(C(=O)N[C@H]7CC[C@H](Oc8ccc(C#N)c(Cl)c8)CC7)nn6)CC5)C4)C3)cc1)=N[C@H](Cc1ncco1)c1nnc(C)n1-2 [I-382] | 500 to 1500 nM | < 500 nM | – | – | > 3000 nM | < 500 nM | – | – |
| Cc1sc2c(c1C)C(c1ccc([C@H]3C[C@H](C4CC5(CCN(c6ccc(C(=O)N[C@H]7CC[C@H](Oc8ccc(C#N)c(Cl)c8)CC7)nn6)CC5)C4)C3)cc1)=N[C@H](Cc1ncco1)c1nnc(C)n1-2 [I-383] | < 500 nM | < 500 nM | – | – | > 3000 nM | < 500 nM | – | – |
| Cc1sc2c(c1C)C(c1ccc(C[C@H]3C[C@]4(CCCN(c5ccc(C(=O)N[C@H]6CC[C@H](Oc7ccc(C#N)c(Cl)c7)CC6)nn5)C4)C3)nc1)=N[C@H](Cc1ncco1)c1nnc(C)n1-2 [I-384] | > 3000 nM | > 3000 nM | – | – | > 3000 nM | > 3000 nM | – | – |
| Cc1sc2c(c1C)C(c1ccc(CC(C)(C)N3CC4(CCCN(c5ccc(C(=O)N[C@H]6CC[C@H](Oc7ccc(C#N)c(Cl)c7)CC6)nn5)C4)C3)cc1)=N[C@@H](Cc1ncco1)c1nnc(C)n1-2 [I-393] | < 500 nM | < 500 nM | – | – | 1500 to 3000 nM | < 500 nM | – | – |
| CC1=NN=C2C1c1sc(C)c(C)c1C(c1ccc(C#CC3CCN(c4ccc(C(=O)N[C@H]5CC[C@H](Oc6ccc(C#N)c(Cl)c6)CC5)nn4)CC3)cc1)=N[C@H]2Cc1ncco1 (stereo partly drawn) [I-394] | < 500 nM | < 500 nM | – | – | < 500 nM | < 500 nM | – | – |
| Cc1sc2c(c1C)C(c1ccc(CCC[C@H]3CCCN(c4ccc(C(=O)N[C@H]5CC[C@H](OC6CCC(C#N)C(Cl)C6)CC5)nn4)CC3)cc1)=N[C@@H](Cc1ncco1)c1nnc(C)n1-2 (stereo partly drawn) [I-395] | < 500 nM | < 500 nM | – | – | < 500 nM | < 500 nM | – | – |
| Cc1sc2c(c1C)C(c1ccc(N3CCC4(CC3)CCN(c3ccc(C(=O)NC5CCC(Oc6ccc(C#N)c(Cl)c6)CC5)nn3)CC4)cc1)=N[C@@H](Cc1ncco1)c1nnc(C)n1-2 (stereo partly drawn) [I-397] | < 500 nM | < 500 nM | – | – | < 500 nM | < 500 nM | – | – |
| Cc1sc2c(c1C)C(c1ccc(N3CCC4(CCCN(c5ccc(C(=O)N[C@H]6CC[C@H](Oc7ccc(C#N)c(Cl)c7)CC6)nn5)C4)CC3)cc1)=NC1(CC1)c1nnc(C)n1-2 [I-398] | 1500 to 3000 nM | > 3000 nM | – | – | > 3000 nM | < 500 nM | – | – |
| Cc1sc2c(c1C)C(c1ccc(N3CCC4(CC3)CCN(c3ccc(C(=O)N[C@H]5CC[C@H](Oc6ccc(C#N)c(Cl)c6)CC5)nn3)C4)cc1)=NCc1nnc(C)n1-2 [I-400] | 1500 to 3000 nM | > 3000 nM | – | – | 500 to 1500 nM | < 500 nM | – | – |
| Cc1sc2c(c1C)C(c1ccc(CCC3CCC4CN(c5ccc(C(=O)N[C@H]6CC[C@H](Oc7ccc(C#N)c(Cl)c7)CC6)nn5)CCN4C3)cc1)=NC(Cc1ncco1)c1nnc(C)n1-2 (stereo partly drawn) [I-402] | – | – | > 3000 nM | > 3000 nM | – | – | > 3000 nM | < 500 nM |
| Cc1sc2c(c1C)C(c1ccc(CCC3CCC4CN(c5ccc(C(=O)N[C@H]6CC[C@H](Oc7ccc(C#N)c(Cl)c7)CC6)nn5)CCN4C3)cc1)=NC(Cc1ncco1)c1nnc(C)n1-2 (stereo partly drawn) [I-403] | – | – | < 500 nM | < 500 nM | – | – | < 500 nM | < 500 nM |
| Cc1sc2c(c1C)C(c1ccc(OC[C@H]3CC[C@]4(C3)CN(c3ccc(C(=O)N[C@H]5CC[C@H](Oc6ccc(C#N)c(Cl)c6)CC5)nn3)CCO4)cn1)=N[C@@H](Cc1ncco1)c1nnc(C)n1-2 [I-405] | < 500 nM | < 500 nM | – | – | < 500 nM | < 500 nM | – | – |
| Cc1sc2c(c1C)C(c1ccc(OC[C@H]3CC[C@@]4(CCCN(c5ccc(C(=O)N[C@H]6CC[C@H](Oc7ccc(C#N)c(Cl)c7)CC6)nn5)C4)C3)cn1)=N[C@@H](Cc1ncco1)c1nnc(C)n1-2 [I-406] | < 500 nM | < 500 nM | – | – | < 500 nM | < 500 nM | – | – |

Continued, in another order:

| GI50 (VCaP cells; Homo sapiens, VCaP, 72 h) | GI50 (T47D cells; Homo sapiens, T47D, 72 h) | GI50 (VCaP cells) | GI50 (T47D cells) | SMILES | GI50 ([1]; 72 h) | GI50 ([2]; 72 h) | GI50 [1] | GI50 [2] |
| --- | --- | --- | --- | --- | --- | --- | --- | --- |
| < 500 nM | < 500 nM | – | – | Cc1sc2c(c1C)C(c1ccc(CCN3[C@@H](C)CN(c4ccc(C(=O)N[C@H]5CC[C@H](Oc6ccc(C#N)c(Cl)c6)CC5)nn4)C[C@@H]3C)cc1)=N[C@@H](Cc1ncco1)c1nnc(C)n1-2 [I-379] | < 500 nM | < 500 nM | – | – |
| > 3000 nM | > 3000 nM | – | – | Cc1sc2c(c1C)C(c1ccc([C@H]3C[C@@H](C4CC5(CCN(c6ccc(C(=O)N[C@H]7CC[C@H](Oc8ccc(C#N)c(Cl)c8)CC7)nn6)CC5)C4)C3)cc1)=N[C@@H](Cc1ncco1)c1nnc(C)n1-2 [I-380] | > 3000 nM | > 3000 nM | – | – |
| < 500 nM | 500 to 1500 nM | – | – | Cc1sc2c(c1C)C(c1ccc(C[C@H]3C[C@]4(CCCN(c5ccc(C(=O)N[C@H]6CC[C@H](Oc7ccc(C#N)c(Cl)c7)CC6)nn5)C4)C3)nc1)=N[C@@H](Cc1ncco1)c1nnc(C)n1-2 [I-385] | > 3000 nM | < 500 nM | – | – |
| < 500 nM | < 500 nM | – | – | Cc1sc2c(c1C)C(c1ccc(N3CC(C4CCN(c5ccc(C(=O)N[C@H]6CC[C@H](Oc7ccc(C#N)c(Cl)c7)CC6)nn5)CC4)C3)cc1)=N[C@@H](Cc1ncco1)c1nnc(C)n1-2 [I-386] | < 500 nM | < 500 nM | – | – |
| < 500 nM | < 500 nM | – | – | Cc1sc2c(c1C)C(c1ccc(N3CC(C4CC5(C4)CN(c4ccc(C(=O)N[C@H]6CC[C@H](Oc7ccc(C#N)c(Cl)c7)CC6)nn4)C5)C3)cc1)=N[C@@H](Cc1ncco1)c1nnc(C)n1-2 [I-387] | < 500 nM | < 500 nM | – | – |
| < 500 nM | < 500 nM | – | – | Cc1sc2c(c1C)C(c1ccc(N3CCC4(CCN(c5ccc(C(=O)N[C@H]6CC[C@H](Oc7ccc(C#N)c(Cl)c7)CC6)nn5)CC4)C3)cc1)=N[C@@H](Cc1ncco1)c1nnc(C)n1-2 [I-388] | < 500 nM | < 500 nM | – | – |
| < 500 nM | 500 to 1500 nM | – | – | [2H]C([2H])(c1ccc(C2=N[C@@H](Cc3ncco3)c3nnc(C)n3-c3sc(C)c(C)c32)cc1)N1CCC2(CCCN(c3ccc(C(=O)N[C@H]4CC[C@H](Oc5ccc(C#N)c(Cl)c5)CC4)nn3)C2)C1 (stereo partly drawn) [I-389] | 1500 to 3000 nM | < 500 nM | – | – |
| < 500 nM | 500 to 1500 nM | – | – | [2H]C([2H])(c1ccc(C2=N[C@@H](Cc3ncco3)c3nnc(C)n3-c3sc(C)c(C)c32)cc1)N1CC2(CCCN(c3ccc(C(=O)N[C@H]4CC[C@H](Oc5ccc(C#N)c(Cl)c5)CC4)nn3)C2)C1 [I-390] | 500 to 1500 nM | < 500 nM | – | – |
| > 3000 nM | > 3000 nM | – | – | Cc1sc2c(c1C)C(c1ccc(C(C)(C)N3CC4(CCN(c5ccc(C(=O)N[C@H]6CC[C@H](Oc7ccc(C#N)c(Cl)c7)CC6)nn5)CC4)C3)cc1)=N[C@@H](Cc1ncco1)c1nnc(C)n1-2 [I-391] | > 3000 nM | < 500 nM | – | – |
| 500 to 1500 nM | > 3000 nM | – | – | Cc1sc2c(c1C)C(c1ccc(C(C)(C)N3CC4(CCCN(c5ccc(C(=O)N[C@H]6CC[C@H](Oc7ccc(C#N)c(Cl)c7)CC6)nn5)C4)C3)cc1)=N[C@@H](Cc1ncco1)c1nnc(C)n1-2 [I-392] | > 3000 nM | < 500 nM | – | – |
| < 500 nM | < 500 nM | – | – | Cc1sc2c(c1C)C(c1ccc(CCCC3CCCN(c4ccc(C(=O)N[C@H]5CC[C@H](OC6CCC(C#N)C(Cl)C6)CC5)nn4)CC3)cc1)=N[C@@H](Cc1ncco1)c1nnc(C)n1-2 (stereo partly drawn) [I-396] | < 500 nM | < 500 nM | – | – |
| < 500 nM | 1500 to 3000 nM | – | – | Cc1sc2c(c1C)C(c1ccc(N3CCC4(CC3)CCN(c3ccc(C(=O)N[C@H]5CC[C@H](Oc6ccc(C#N)c(Cl)c6)CC5)nn3)C4)cc1)=NC1(CC1)c1nnc(C)n1-2 [I-399] | 500 to 1500 nM | < 500 nM | – | – |
| – | – | > 3000 nM | > 3000 nM | Cc1sc2c(c1C)C(c1ccc(CCC3CCC4CN(c5ccc(C(=O)N[C@H]6CC[C@H](Oc7ccc(C#N)c(Cl)c7)CC6)nn5)CCN4C3)cc1)=NC(Cc1ncco1)c1nnc(C)n1-2 (stereo partly drawn) [I-401] | – | – | > 3000 nM | > 3000 nM |
| – | – | < 500 nM | < 500 nM | Cc1sc2c(c1C)C(c1ccc(CCC3CCC4CN(c5ccc(C(=O)N[C@H]6CC[C@H](Oc7ccc(C#N)c(Cl)c7)CC6)nn5)CCN4C3)cc1)=NC(Cc1ncco1)c1nnc(C)n1-2 (stereo partly drawn) [I-404] | – | – | < 500 nM | < 500 nM |
